# Experimental data from patent US20250302781A1, “METHOD FOR PRETREATING RELAPSING CANCER” (priority 2022, published 2025).
# What was measured:
# WSU-NHL cell line = experiment: WST 1 colorimetric cell proliferation assay, WSU-NHL cell line; format: cell-based, human; settings: for effect of valproic acid pretreatment on cell proliferation (percent growth of treated cells): 48 h pretreatment 1 mM valproic acid
# Procedure: (§1) In this example the combined effect of valproic acid and three different compounds as well as the single treatment on the growth of two cell lines were measured by WST 1 assay.
# (§2) The cell lines used where: • SU DHL 8: human B cell lymphoma, and • WSU NHL: human B cell lymphoma
# (§3) The WST 1 colorimetric assay comprised providing suspended cells (5000 cells/well) in the wells of a well plate. Tetrazolium salt (WST 1) was added to the cells and thereby colored the fluid in the wells red. Live cells reduce the tetrazolium salt via intermediate electron acceptors and forms a formazan product and the fluid in the cells turn yellow. The extent of color change reflects the proliferation of the cells and is read out as optical absorbance at 420 nm. Both cell lines were determined to be able to tolerate concentrations of up to 1% Dimethyl sulfoxide (DMSO), and this DMSO concentration was used as negative control. Additionally, 10% DMSO was used as positive control.
# (§4) The cells of each cell line were incubated in a pretreatment step with 1 mM valproic acid for 48 hours followed by a treatment step with the respective compound for 24 or 48 hours, as shown in table 1 below: […]
# [1] = test system: SU-DHL cell line (SU DHL 8); experiment: WST 1 colorimetric cell proliferation assay, SU-DHL cell line; format: cell-based, human; settings: for effect of valproic acid pretreatment on cell proliferation (percent growth of treated cells): 48 h pretreatment 1 mM valproic acid
# Procedure: as §1, §2
# as §3, with “Both cell lines were determined to be able to tolerate concentrations of up to 1% Dimethyl sulfoxide (DMSO), and this DMSO concentration was used as negative control.” left out
# as §4
# [2] = FIG. 2B, 5 μM of compound 48 h after 48 h 1 mM valproic acid, normalized to untreated control cells
compound,measurement,setting,value
"Cn1c(CCCC(=O)O)nc2cc(N(CCCl)CCCl)ccc21 [bendamustine, 1H-Benzimidazole-2-butanoic acid, 5-[bis(2-chloroethyl)amino]-1-methyl-]",effect on cell proliferation after valproic acid pretreatment,"WSU-NHL cell line; FIG. 1B, 5 μM bendamustine 24 h after 48 h 1 mM valproic acid, normalized to untreated control cells",Especially significant effects
same,effect on cell proliferation after valproic acid pretreatment,WSU-NHL cell line; [2],Especially significant effects
same,"cell proliferation, combination with VPA","[1]; FIG. 4A, 25 μM bendamustine 48 h after 48 h 1 mM VPA, normalized to 1/DMSO treated cells",killed all cancer cells
"Nc1ccn([C@@H]2O[C@H](CO)[C@@H](O)C2(F)F)c(=O)n1 [gemcitabine, Cytidine, 2′-deoxy-2′,2′-difluoro-]",effect on cell proliferation after valproic acid pretreatment,"WSU-NHL cell line; FIG. 1B, 5 nM gemcitabine 24 h after 48 h 1 mM valproic acid, normalized to untreated control cells",Especially significant effects
same,effect on cell proliferation after valproic acid pretreatment,"WSU-NHL cell line; FIG. 2B, 5 nM gemcitabine 48 h after 48 h 1 mM valproic acid, normalized to untreated control cells",Especially significant effects
same,"cell proliferation, combination with VPA","[1]; FIG. 4A, 25 nM gemcitabine 48 h after 48 h 1 mM VPA, normalized to 1/DMSO treated cells",killed all cancer cells
CCCC(CCC)C(=O)O [valproic acid],effect of valproic acid pretreatment on cell proliferation (percent growth of treated cells),"WSU-NHL cell line; FIG. 1A, then 24 h treatment with bendamustine, gemcitabine or carboplatin, normalized to 1% DMSO treated cells",increased the effect of the 24 h treatment
same,effect of valproic acid pretreatment on cell proliferation (percent growth of treated cells),"WSU-NHL cell line; FIG. 1B, then 24 h treatment with the respective compounds, normalized to untreated control cells",increased the effect of the 24 h treatment
same,effect of valproic acid pretreatment on cell proliferation (percent growth of treated cells),"WSU-NHL cell line; FIG. 2A, then 48 h treatment with the respective compounds, normalized to 1/DMSO treated cells",increased the effect of the 48 h treatment
same,effect of valproic acid pretreatment on cell proliferation (percent growth of treated cells),"WSU-NHL cell line; FIG. 2B, then 48 h treatment with the respective compounds, normalized to untreated control cells",increased the effect of the 48 h treatment
same,effect of valproic acid pretreatment on cell proliferation (percent growth of treated cells),"[1]; FIG. 3A, then 24 h treatment with the respective compounds, normalized to 1% DMSO treated cells",increased the effect of the 24 h treatment
same,effect of valproic acid pretreatment on cell proliferation (percent growth of treated cells),"[1]; FIG. 3B, then 24 h treatment with the respective compounds, normalized to untreated control cells",increased the effect of the 24 h treatment
same,effect of valproic acid pretreatment on cell proliferation (percent growth of treated cells),"[1]; FIG. 4A, then 48 h treatment with the respective compounds, normalized to 1/DMSO treated cells",increased the effect of the 48 h treatment
same,effect of valproic acid pretreatment on cell proliferation (percent growth of treated cells),"[1]; FIG. 4B, then 48 h treatment with the respective compounds, normalized to untreated control cells",increased the effect of the 48 h treatment
"N.N.O=C([O-])C1(C(=O)[O-])CCC1.[Pt+2] [carboplatin, Platinum, diammine[1,1-cyclobutanedicarboxylato(2-)-KO,KO″ ]-, (SP-4-2)-]",effect on cell proliferation after valproic acid pretreatment,WSU-NHL cell line; [2],Especially significant effects
same,"cells left alive, combination with VPA","[1]; FIG. 4B, 5 μM carboplatin 48 h after 48 h 1 mM VPA, normalized to untreated control cells",about 10 cells
same,"cells left alive, combination with VPA","[1]; FIG. 4B, 25 μM carboplatin 48 h after 48 h 1 mM VPA, normalized to untreated control cells",about 10 cells
